The values below are quoted from earlier work in US20150230971A1, “MULTIPURPOSE DRUG DELIVERY SYSTEMS FOR LONG-TERM IMPLANTATION OR INSERTION” (PAT&CO BVBA, priority 2012, published 2015).

For this data set, the system named is rats and mice. The settings on record: carcinomas and/or precursor lesions of oral cavity, lips, tongue, esophagus, forestomach.

Take `C=COC(C)=O` [VAM, vinyl acetate monomer]: the carcinogenicity entry was “increase in total malignant tumors”.
